Experimental findings from ChEMBL document CHEMBL5050841, “Inhibitors of pick1 and uses thereof” (2021) are described below.

The species named for series [1] is Mus musculus. As to the kind of experiment: Anti-hypersensitive activity in mouse model of spared nerve injury-induced acute neuropathic pain assessed as reduction in GluA1 surface levels in spinal cord at 20 uM, IT by immunoblot analysis. The format is functional, organism-based. In general terms: In western blotting, separated proteins are transferred to a membrane and probed.

The nature of series [2]: Stability of compound in PBS. To be noted: buffer. The format is physicochemical.
Series [3] is filed under the species Mus musculus. As to the kind of experiment: Disruption of PICK1-GluA2 interaction in lumbar spinal cord lysates of male C57BL/6 mouse at 20 uM, IT and measured by co-immunoprecipitation assay. The format is subcellular.
The species entered for series [4] is Mus musculus. Description: Disruption of PICK1-GluA2 interaction in lumbar spinal cord lysates of male C57BL/6 mouse assessed as reduction in GluA2 surface levels at 20 uM, IT and measured by immunoblot analysis. The format is subcellular.
The species entered for series [5] is Mus musculus. Description: Anti-hypersensitive activity in mouse model of spared nerve injury-induced acute neuropathic pain assessed as reduction in GluA2 surface levels in spinal cord at 20 uM, IT by immunoblot analysis. The format is functional, organism-based.
Series [6] can be described thus: (§1) Binding affinity towards PICK1 in rat hippocampal neurons incubated for 1 hr and measured by DID staining method. The format is cell-based. The conditions noted are these: hippocampal neurone.
The species entered for series [7] is Mus musculus. Description: Disruption of PICK1-GluA2 interaction in lumbar spinal cord lysates of male C57BL/6 mouse assessed as reduction in GluA2 S880 phosphorylation levels at 20 uM, IT and measured by immunoblot analysis. The format is subcellular.
The species named for series [8] is Mus musculus. Description: Binding affinity towards PICK1 in lumbar spinal cord lysates of mouse at 20 uM, IT([…]) and measured by immunoblot analysis. The format is subcellular.
The species entered for series [9] is Mus musculus. Description: Anti-hypersensitive activity in mouse model of spared nerve injury-induced acute neuropathic pain assessed as increase in paw withdrawal threshold at 20 uM, IT by von Frey test. The format is functional, organism-based.
The nature of series [10]: Inhibition of macroscopic off-rate of bound PICK1 in Tac-YFP-Dat C24 expressing human HEK293 supported cell membrane sheets. The format is cell membranes.
Series [11] is filed under the species Mus musculus. As to the kind of experiment: Disruption of PICK1-GluA2 interaction in lumbar spinal cord lysates of male C57BL/6 mouse assessed as reduction in GluA1 surface levels at 20 uM, IT and measured by immunoblot analysis. The format is subcellular.
Series [12] relates to Mus musculus. Description: Anti-hypersensitive activity in mouse model of spared nerve injury-induced chronic neuropathic pain assessed as increase in paw withdrawal threshold at 30 mg/kg, ip after 2 hrs by von Frey test. The format is functional, organism-based.
The test system of series [13] is Rattus norvegicus. Description: Attenuation of cocaine reinstatement in 7 day cocaine treated rat assessed as reduction in cocaine seeking behaviour at 0.3 to 3 nmol/g, iv of TAMRA labeled compound treated for 45 mins prior to administration of cocaine injection. The format is functional, organism-based. The conditions noted are these: dose 0.3-3 nmol/g.
The nature of series [14]: Inhibition of recombinant rat SNAP-543-labeled PICK1 binding to Tac-YFP-Dat C24 expressing human HEK293 supported cell membrane sheets and measured by fluorescence polarization competition binding assay. The format is cell membranes. A general note: In fluorescence polarisation assays a small probe gives low polarisation when free and higher when bound to something large.

Series [15] deals with Rattus norvegicus. Description: Attenuation of cocaine reinstatement in 7 day cocaine treated rat assessed as effect on inactive lever response at 0.3 to 3 nmol/g, iv of TAMRA labeled compound treated for 45 mins prior to administration of cocaine injection. The format is functional, organism-based. To be noted: dose 0.3-3 nmol/g.
In series [16] the test system is Mus musculus. Description: Anti-hypersensitive activity in C57BL/6J mouse model of spared nerve injury-induced acute neuropathic pain assessed as increase in ipsilateral paw mechanical threshold at 10 micromol/kg, sc. The conditions noted are these: dose 10.0 µmol/kg. The format is functional, organism-based.
The species named for series [17] is Mus musculus. As to the kind of experiment: Anti-hypersensitive activity in mouse model of spared nerve injury-induced chronic neuropathic pain assessed as increase in paw withdrawal threshold at 20 uM, IT after 28 days by von Frey test. The format is functional, organism-based. To be noted: time 28.0 day.
Series [18] relates to Rattus norvegicus. As to the kind of experiment: Attenuation of cocaine reinstatement in 7 day cocaine treated rat assessed as effect on locomotor activity at 3 nmol/g, iv of TAMRA labeled compound treated for 45 mins prior to administration of cocaine injection. The format is functional, organism-based.
The next series has as its system Hippocampal neurone. The description is as §1. The format is cell-based.
For series [19], the system named is Rattus norvegicus. Description: Attenuation of cocaine reinstatement in 7 day cocaine treated rat assessed as reduction in sucrose seeking behaviour at 3 nmol/g, iv of TAMRA labeled compound treated for 45 mins prior to administration of cocaine injection. The format is functional, organism-based.
Series [20] is filed under the species Mus musculus. As to the kind of experiment: Anti-hypersensitive activity in mouse model of spared nerve injury-induced chronic neuropathic pain assessed as increase in paw withdrawal threshold at 20 uM, IT after 14 days by von Frey test. The format is functional, organism-based. The conditions noted are these: time 14.0 day.
Series [21] is filed under the species Mus musculus. Description: Antiallodynic activity in C57BL6/N mouse model of CFA-induced inflammatory pain assessed as increase in paw withdrawal threshold at 20 uM, IT by von Frey test. The format is functional, organism-based.
Series [22] in a line: Stability of compound in human plasma. The format is ADME, cell-free.
Series [23] is described as follows: Binding affinity towards PICK1 PDZ domain (unknown origin) measured by fluorescence polarization assay. Also noted: species or system Homo sapiens.

SMILES strings stand for the structures. Activity calls are given as the source filed them.

A word on the IC50: it is the concentration that inhibits the measured activity by half. Broadly, the Ki is the equilibrium dissociation constant of an inhibitor or competing ligand from its target.

For the compound `CC(C)C[C@H](NC(=O)[C@H](Cc1c[nH]c2ccccc12)NC(=O)[C@H](Cc1cnc[nH]1)NC(=O)[C@H](CCCNC(=N)N)NC(=O)[C@H](CCCNC(=N)N)NC(=O)[C@H](CCCNC(=N)N)NC(=O)[C@H](CCC(N)=O)NC(=O)[C@H](CCCNC(=N)N)NC(=O)[C@H](CCCNC(=N)N)NC(=O)[C@H](CCCCN)NC(=O)[C@H](CCCCN)NC(=O)[C@H](CCCNC(=N)N)NC(=O)CNC(=O)[C@@H](N)Cc1ccc(O)cc1)C(=O)N[C@@H](CCCCN)C(=O)N[C@H](C(=O)O)C(C)C`, the outcome in the series listed under Mus musculus [1], in the series filed under Mus musculus [3], in the series listed under Mus musculus [4], in the series filed under Mus musculus [5], in the series filed under Mus musculus [7] and in the series listed under Mus musculus [8] was inactive. Besides, the outcome in the series listed under Mus musculus [9] and in the series filed under Mus musculus [11] was inactive. For the same compound, in series [2], the Stability entry is listed as “Unstable”. The results for the IC50 result in series [6] and in series [10] were “Active” and “Not Active”, respectively.

As for `CC(C)C[C@H](NC(=O)[C@H](Cc1c[nH]c2ccccc12)NC(=O)[C@@H](N)Cc1cnc[nH]1)C(=O)N[C@@H](CCCCN)C(=O)N[C@H](C(=O)O)C(C)C`, the IC50 result in [10] is on record as “Not Active”.

`NCC1(CC(=O)O)CCCCC1`: the outcome in the series on Mus musculus [12] was Active.

As to `CC(C)C[C@H](NC(=O)[C@H](Cc1c[nH]c2ccccc12)NC(=O)[C@H](Cc1cnc[nH]1)NC(=O)CCOCCOCCN(CCOCCOCCC(=O)N[C@@H](Cc1cnc[nH]1)C(=O)N[C@@H](Cc1c[nH]c2ccccc12)C(=O)N[C@@H](CC(C)C)C(=O)N[C@@H](CCCCN)C(=O)N[C@H](C(=O)O)C(C)C)C(=O)[C@H](CCCNC(=N)N)NC(=O)[C@H](CCCNC(=N)N)NC(=O)[C@H](CCCNC(=N)N)NC(=O)[C@H](CCCNC(=N)N)NC(=O)[C@H](CCCNC(=N)N)NC(=O)[C@H](CCCNC(=N)N)NC(=O)[C@H](CCCCN)NC(=O)[C@H](CCCCN)NC(=O)[C@H](CCCNC(=N)N)NC(=O)CNC(=O)[C@@H](N)Cc1ccc(O)cc1)C(=O)N[C@@H](CCCCN)C(=O)N[C@H](C(=O)O)C(C)C`, the outcome in the series listed under Mus musculus [1], with Rattus norvegicus [13], in the series with Mus musculus [16], in the series listed under Mus musculus [3], in the series filed under Mus musculus [17] and in the series filed under Mus musculus [5] was Active. In addition, the result in the series on Hippocampal neurone, in the series listed under Mus musculus [7], in the series listed under Mus musculus [20], in the series listed under Mus musculus [21], in the series filed under Mus musculus [8] and in the series listed under Mus musculus [9] was Active. Also, the IC50 in [14] stood at 7 nM; in series [10] (read-out: IC50) it was 1170 nM. The result in the series with Rattus norvegicus [15], in the series listed under Mus musculus [4], with Rattus norvegicus [18], in the series on Rattus norvegicus [19] and in the series filed under Mus musculus [11] was inactive. The Stability entry in series [2] and in series [22] was “Stable” in each case.

`CC[C@H](C)[C@H](NC(=O)[C@H](CCCCN)NC(=O)CNC(=O)[C@H](CC(C)C)NC(=O)[C@H](CC(C)C)NC(=O)[C@H](Cc1ccc(O)cc1)NC(=O)CNC(=O)[C@H](C)NC(=O)[C@H](CO)NC(=O)[C@H](CC(N)=O)NC(=O)[C@H](CC(C)C)NC(=O)[C@@H](NC(=O)[C@H](Cc1c[nH]c2ccccc12)NC(=O)CN)[C@@H](C)O)C(=O)N[C@@H](CC(N)=O)C(=O)N[C@@H](CC(C)C)C(=O)N[C@@H](CCCCN)C(=O)N[C@@H](C)C(=O)N[C@@H](CC(C)C)C(=O)N[C@@H](C)C(=O)N[C@@H](C)C(=O)N[C@@H](CC(C)C)C(=O)N[C@@H](C)C(=O)N[C@@H](CCCCN)C(=O)N[C@@H](CCCCN)C(=O)N[C@H](C(=O)N[C@@H](CC(C)C)C(=O)N(CCOCCOCCC(=O)N[C@@H](Cc1cnc[nH]1)C(=O)N[C@@H](Cc1c[nH]c2ccccc12)C(=O)N[C@@H](CC(C)C)C(=O)N[C@@H](CCCCN)C(=O)N[C@H](C(=O)O)C(C)C)CCOCCOCCC(=O)N[C@@H](Cc1cnc[nH]1)C(=O)N[C@@H](Cc1c[nH]c2ccccc12)C(=O)N[C@@H](CC(C)C)C(=O)N[C@@H](CCCCN)C(=O)N[C@H](C(=O)O)C(C)C)[C@@H](C)CC`: the outcome in the series on Mus musculus [16] was Active. The compound further gave a Ki in [23] of 7.8 nM.
